According to paper PMC2137757 (The Journal of Experimental Medicine, 1964):
Where two headings read alike, the source gives them in different places.

Columns and labels:
[1] = test system: menadione reductase (EC 1.6.5.2); experiment: Induction of menadione reductase in tissues; format: in vivo, rat; details: for Induction of menadione reductase in liver: single feeding, 24 hours
[2] = test system: adrenal cortex; details: cited from earlier work; for Protection of adrenal against 7,12-DMBA: single feeding
[3] = test system: adrenal cortex; experiment: Adrenal damage; details: for Adrenal damage: feeding; for Pathological findings in adrenals: without hydrocarbons
[4] = test system: adrenal cortex; experiment: Induced protection of adrenal against 7,12-DMBA; format: in vivo, rat; details: for Protection of adrenal after repeated doses: 15 mg fed daily for 5 days before 7,12-DMBA
[5] = test system: deoxyribonucleic acid of adrenal; format: in vivo, rat; details: Table VII; ethionine 25 mg i.p. at -24 hrs alone
[6] = test system: adrenal cortex; details: far larger doses than of 7,12-DMBA required; cited from earlier work
[7] = polycyclic aromatic hydrocarbons

c1ccc2c(c1)ccc1c3ccccc3ccc21 [Chrysene]
Induction of menadione reductase in liver [1]: induced a considerable in- crease

c1cc2ccc3cccc4ccc(c1)c2c34 [Pyrene]
Induction of menadione reductase in liver [1]: failed to induce this enzyme

c1ccc2c(c1)cc1ccc3cccc4ccc2c1c34 [Benzo[a]pyrene, benzo[a]pyrene]
Protection of adrenal against 7,12-DMBA [2, 7]: protection of this sort was afforded
Induction of menadione reductase in liver [1]: induced synthesis of the enzyme

c1ccc2cc3c(ccc4ccccc43)cc2c1 [Benz[a]anthracene, benz[a]anthracene]
Protection of adrenal against 7,12-DMBA [2, 7]: protection of this sort was afforded

Nc1ccc2c(c1)Cc1ccccc1-2 [2-aminofluorene]
Protection of adrenal against 7,12-DMBA ([2]; aromatic amines): protection of this sort was afforded

Nc1cc2c3ccccc3ccc2c2ccccc12 [6-Aminochrysene]
Protection of adrenal against 7,12-DMBA ([2]; aromatic amines): protection of this sort was afforded

Cc1ccc2cc3c(ccc4cc(C)ccc43)cc2c1 [3,9-Dimethylbenz[alanthracene]
Adrenal damage ([3]; 30 mg): adrenal damage did not occur

CC(C)(O)C(Cl)(Cl)Cl [chloretone, 1,1,1-tricbloro-2-methyl-2-propanol]
Rats with protection of adrenals ([4]; 15 mg fed daily for 5 days, group of 20 rats): 7

CSCC[C@H](N)C(=O)O [methionine]
Pathological findings in adrenals ([3]; injection of 50 mg): No pathological findings
Influence on aromatic protection against 7,12-DMBA ([4]; methionine 50 mg as sole amino acid 1 hour before or 1 hour after 3-MC 2 mg): no influence on aromatic protection

CCC1(C2=CCCCC2)C(=O)NC(=O)NC1=O [cyclobarbital, 5-(1-cycloohexanyl)-5-ethylbarbituric acid]
Protection of adrenal after repeated doses [4]: did not induce pro- tection

CC12OOC(C)(c3ccccc31)c1c2ccc2ccccc12 (stereo not drawn) [transannular peroxide of 7,12-DMBA]
Adrenal damage ([3]; 50 mg): did not cause injury to the adrenals
Adrenal protection ([4]; feeding 10 mg): complete adre- nal protection
Animals with protection of adrenals ([4]; single feeding of 2 mg, group of 5 rats): 3

c1ccc2c(c1)ccc1ccccc12 [phenanthrene]
Protection of adrenal against 7,12-DMBA [2, 7]: protection of this sort was afforded

CC(C)(C(=O)c1cccnc1)c1cccnc1 [2-methyl-I, 2-b/s(3-pyr-idyl)-1-propanone]
Prevention of adrenal damage from 7,12-DMBA ([2]; preliminary treatment of rats): prevented adrenal damage

Nc1ccc2ccccc2c1 [2-naphthylamine]
Protection of adrenal against 7,12-DMBA ([2]; aromatic amines): protection of this sort was afforded

CCSCC[C@H](N)C(=O)O [ethionine]
Pathological findings in adrenals ([3]; injection of 25 to 75 mg): No pathological findings
Elevation of menadione reductase in liver at 12 hours vs rats without ethionine ([1]; 3-MC 2.5 mg i.v. plus ethionine 25 mg i.p.): significantly lower
Time elevation of menadione reductase in liver first detected ([1]; 3-MC 2.5 mg i.v. plus ethionine 25 mg i.p. just after, Fig. 4): 8 h
Adrenals at necropsy ([4]; 3 doses of ethionine 25 mg at +1 minute, +4 hours, +8 hours after 3-MC 10 mg, 7,12-DMBA 5 mg): eliminated the protective effect of 3-MC
Adrenals at necropsy ([4]; ethionine 25 mg 4 or 8 hours after 3-MC 2 mg, 7,12-DMBA 5 mg 24 hours later): yel- low adrenals
Effect on 7,12-DMBA-produced adrenal apoplexy ([4]; ethionine 25 mg or 50 mg 0.5 hours before 7,12-DMBA 5 mg, no protector): adrenal apoplexy was found at necropsy in all of the rats
Adrenals at necropsy ([4]; single doses of ethionine 25 mg or 50 mg, 1 minute to 1 hour after 3-MC 10 mg, 7,12-DMBA 5 mg): yellow adrenals
Tritium content of adrenal [5]: 0.122 ~clgm
Tritium content of adrenal, per cent of controls [5]: 92 per cent

Cc1c2ccccc2cc2c1cc(F)c1ccccc12 [5-Fluoro-7-methyl BaA]
Adrenals with hemorrhage ([4]; Table III, dose 1 mg fed once day -1, 7,12-DMBA 5 mg i.v. day 0, adrenals day 3): 0/6

c1ccc2cc3ccccc3cc2c1 [anthracene]
Protection of adrenal against 7,12-DMBA [2, 7]: protection of this sort was afforded

Cc1cccc2ccc3cc4ccccc4c(C)c3c12 [1,12-DMBA]
Adrenal damage ([3]; 30 mg): adrenal damage did not occur

Clc1ccc(C(c2ccccc2Cl)C(Cl)Cl)cc1 (stereo not drawn) [o,p'-DDD, 2,2-bis(2-chlorophenyl,4-chlorophenyl)-l, 1-dichloroethane]
Adrenal necrosis (character) [6]: focal and patchy

CCC1(CC)C(=O)NC(=O)NC1=O [barbital]
Protection of adrenal after repeated doses [4]: did not induce pro- tection

Cc1cccc2cc3c(cc12)c(C)cc1ccccc13 [6,8-Dimethylbenz[a]anthracene]
Adrenal damage ([3]; 30 mg): adrenal damage did not occur
